According to ChEMBL document CHEMBL1201862, “PubChem BioAssay data set” (2004):
Active and inactive are the calls of the source.

Key:
[1] = MALME3 melanoma cell viability reduction, dose response, orthogonal assay for MITF inhibitor project, CellTiter-Glo luminescence, dry powder, set 5 (AID 651584); format: functional, cell-based; settings: MALME-3
[2] = A375 melanoma cell cytotoxicity, dose response, counter-screen for MITF inhibitor project, CellTiter-Glo luminescence, dry powder, set 7 (AID 624490); format: functional, cell-based; settings: A-375
[3] = molecular target: T1, Dual specificity protein phosphatase 3 (Homo sapiens, UniProt P51452); experiment: VHR1 phosphatase inhibitors, primary screen, biochemical, absorbance, uHTS (AID 1654)
[4] = molecular target: T1, Dual specificity protein phosphatase 3; experiment: VHR1 phosphatase inhibitors, biochemical (AID 1878)
[5] = growth suppression of PTEN-null colon cells, dose response, cell-based, HCT116 PTEN knockout (AID 1047); format: functional;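 note: HCT116 colon tumor cells with PTEN knocked out; cells exposed to compound for 60 hours before readout; potency for loss of cell viability measured by luminescence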
[6] = molecular target: T2, Heat shock factor protein 1 (Mus musculus, UniProt P38532); experiment: HSF1 potentiators in luciferase reporter cells, confirmation, cell-based, NIH3T3, luminescence, dose retest (AID 435004); format: functional;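 note: stress induced by proteasome inhibitor MG132 added 30 min after compound; luciferase reporter driven by HSF1 response element in NIH3T3 cells; actives raise luminescence as potentiators of the MG132 stress response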
T2 sequence (P38532 whole entry): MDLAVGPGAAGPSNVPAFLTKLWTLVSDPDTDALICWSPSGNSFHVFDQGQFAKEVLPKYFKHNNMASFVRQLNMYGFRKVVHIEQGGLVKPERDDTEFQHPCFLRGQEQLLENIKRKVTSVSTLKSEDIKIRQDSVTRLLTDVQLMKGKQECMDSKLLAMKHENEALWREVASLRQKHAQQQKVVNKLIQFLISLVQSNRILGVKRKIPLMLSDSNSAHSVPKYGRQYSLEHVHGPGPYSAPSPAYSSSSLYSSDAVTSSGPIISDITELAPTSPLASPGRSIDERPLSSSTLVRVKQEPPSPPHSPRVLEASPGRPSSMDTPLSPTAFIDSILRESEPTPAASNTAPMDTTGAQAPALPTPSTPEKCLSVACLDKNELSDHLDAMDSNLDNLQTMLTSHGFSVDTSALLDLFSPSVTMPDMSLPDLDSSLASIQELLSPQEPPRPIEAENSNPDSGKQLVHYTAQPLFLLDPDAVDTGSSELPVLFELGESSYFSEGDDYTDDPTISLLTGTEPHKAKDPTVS

[7] = Counterscreen for antagonists of the orexin 1 receptor (OX1R; HCRTR1): Fluorescence-based cell-based high throughput dose response assay to identify antagonists of the parental CHO cell line. [Related pubchem assays (depositor defined):AID434989, AID435008, AID463079, AID485270, AID492963, AID492964, AID492965, AID493232, AID504699, AID504701]; format: functional
[8] = molecular target: T3, Orexin/Hypocretin receptor type 1 (Homo sapiens, UniProt O43613); experiment: Homogeneous Time Resolved Fluorescence (HTRF)-based cell-based high throughput dose response assay for antagonists of the orexin 1 receptor (OX1R; HCRTR1). [Related pubchem assays (depositor defined):AID434989, AID435008, AID463079, AID485270, AID492963, AID492964, AID492965, AID493232, AID504717, AID504718]; format: functional;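 note: antagonism measured against Orexin-A challenge at about its EC80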
T3 sequence (O43613 whole entry): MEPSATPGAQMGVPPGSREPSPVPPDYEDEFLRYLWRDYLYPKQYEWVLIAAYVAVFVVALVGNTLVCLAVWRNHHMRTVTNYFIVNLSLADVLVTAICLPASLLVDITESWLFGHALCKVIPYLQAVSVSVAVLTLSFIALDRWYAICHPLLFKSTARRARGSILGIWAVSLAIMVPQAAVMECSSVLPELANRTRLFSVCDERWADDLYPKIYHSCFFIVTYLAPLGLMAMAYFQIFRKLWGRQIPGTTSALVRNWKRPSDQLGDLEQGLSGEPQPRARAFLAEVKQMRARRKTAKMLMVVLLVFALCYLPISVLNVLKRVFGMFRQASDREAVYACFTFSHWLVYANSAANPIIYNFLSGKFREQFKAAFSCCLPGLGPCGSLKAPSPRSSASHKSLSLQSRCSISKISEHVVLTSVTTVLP

[9] = molecular target: Calcium/calmodulin-dependent protein kinase type II subunit alpha (Homo sapiens, UniProt Q9UQM7); experiment: Navigating the Kinome. Panel member name: CAMK2A; format: functional
[10] = molecular target: Mast/stem cell growth factor receptor Kit (Homo sapiens, UniProt P10721); format: functional;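 note: KIT entry within a kinase panel assay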
[11] = molecular target: Cyclin-dependent kinase 1 (Homo sapiens, UniProt P06493); format: functional;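 note: Kinome-wide panel profiling, with the target listed as panel member CDC2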
[12] = molecular target: Vascular endothelial growth factor receptor 3 (Homo sapiens, UniProt P35916); format: functional;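 note: value from a kinome-wide profiling panel, with FLT4 as the panel member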
[13] = molecular target: Serine/threonine-protein kinase TBK1 (Homo sapiens, UniProt Q9UHD2); experiment: Navigating the Kinome. Panel member name: TBK1; format: functional
[14] = molecular target: Glycogen synthase kinase-3 beta (Homo sapiens, UniProt P49841); format: functional;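 note: value comes from a broad kinome profiling panel, with GSK3B as the panel member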
[15] = molecular target: Mitogen-activated protein kinase 9 (Homo sapiens, UniProt P45984); format: functional;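 note: value from a kinome panel profiling assay, MAPK9 panel entry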
[16] = molecular target: Mitogen-activated protein kinase 12 (Homo sapiens, UniProt P53778); format: functional;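 note: measured as one member of a kinome-wide kinase profiling panel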
[17] = molecular target: Dual specificity tyrosine-phosphorylation-regulated kinase 3 (Homo sapiens, UniProt O43781); format: functional;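 note: measured as one member of a broad kinase panel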
[18] = molecular target: Mitogen-activated protein kinase kinase kinase kinase 5 (Homo sapiens, UniProt Q9Y4K4); format: functional;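 note: measured as one member of a kinome-spanning kinase panel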
[19] = molecular target: Serine/threonine-protein kinase D2 (Homo sapiens, UniProt Q9BZL6); format: functional;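 note: measured against PRKD2 as one member of a kinome-wide kinase profiling panel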
[20] = molecular target: ALK tyrosine kinase receptor (Homo sapiens, UniProt Q9UM73); format: functional;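 note: ALK tested as one member of a kinase panel screen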
[21] = molecular target: Mitogen-activated protein kinase kinase kinase kinase 2 (Homo sapiens, UniProt Q12851); format: functional;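 note: measured as one member of a kinome-wide kinase panel, with MAP4K2 as the panel entry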
Chain of Mitogen-activated protein kinase kinase kinase kinase 2 (Q12851 whole entry): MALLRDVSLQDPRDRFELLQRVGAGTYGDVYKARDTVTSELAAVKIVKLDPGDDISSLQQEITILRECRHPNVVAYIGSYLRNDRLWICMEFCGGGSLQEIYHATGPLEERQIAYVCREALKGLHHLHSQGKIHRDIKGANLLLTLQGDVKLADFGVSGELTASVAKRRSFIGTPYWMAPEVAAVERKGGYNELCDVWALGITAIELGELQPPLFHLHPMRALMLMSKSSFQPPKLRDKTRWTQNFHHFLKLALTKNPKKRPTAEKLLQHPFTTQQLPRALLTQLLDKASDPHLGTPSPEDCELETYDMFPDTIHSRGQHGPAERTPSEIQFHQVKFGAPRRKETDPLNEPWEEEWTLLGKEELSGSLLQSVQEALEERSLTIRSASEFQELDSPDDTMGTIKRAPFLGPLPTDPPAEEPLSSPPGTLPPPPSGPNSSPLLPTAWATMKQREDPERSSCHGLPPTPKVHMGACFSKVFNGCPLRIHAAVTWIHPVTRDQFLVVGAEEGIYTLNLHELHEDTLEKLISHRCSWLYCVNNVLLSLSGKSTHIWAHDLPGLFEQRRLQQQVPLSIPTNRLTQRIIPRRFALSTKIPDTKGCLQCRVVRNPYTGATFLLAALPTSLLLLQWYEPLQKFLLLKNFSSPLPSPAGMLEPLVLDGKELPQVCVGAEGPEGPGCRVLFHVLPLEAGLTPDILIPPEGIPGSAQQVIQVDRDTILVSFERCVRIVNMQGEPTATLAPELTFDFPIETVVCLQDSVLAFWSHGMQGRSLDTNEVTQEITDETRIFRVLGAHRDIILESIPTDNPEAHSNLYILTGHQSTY

T1 sequence (P51452 whole entry): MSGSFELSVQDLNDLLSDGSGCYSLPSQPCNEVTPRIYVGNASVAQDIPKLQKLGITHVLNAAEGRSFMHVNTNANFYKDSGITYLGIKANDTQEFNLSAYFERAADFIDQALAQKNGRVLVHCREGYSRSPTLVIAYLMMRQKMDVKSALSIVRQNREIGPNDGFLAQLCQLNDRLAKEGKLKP
Chain of Dual specificity tyrosine-phosphorylation-regulated kinase 3 (O43781 whole entry): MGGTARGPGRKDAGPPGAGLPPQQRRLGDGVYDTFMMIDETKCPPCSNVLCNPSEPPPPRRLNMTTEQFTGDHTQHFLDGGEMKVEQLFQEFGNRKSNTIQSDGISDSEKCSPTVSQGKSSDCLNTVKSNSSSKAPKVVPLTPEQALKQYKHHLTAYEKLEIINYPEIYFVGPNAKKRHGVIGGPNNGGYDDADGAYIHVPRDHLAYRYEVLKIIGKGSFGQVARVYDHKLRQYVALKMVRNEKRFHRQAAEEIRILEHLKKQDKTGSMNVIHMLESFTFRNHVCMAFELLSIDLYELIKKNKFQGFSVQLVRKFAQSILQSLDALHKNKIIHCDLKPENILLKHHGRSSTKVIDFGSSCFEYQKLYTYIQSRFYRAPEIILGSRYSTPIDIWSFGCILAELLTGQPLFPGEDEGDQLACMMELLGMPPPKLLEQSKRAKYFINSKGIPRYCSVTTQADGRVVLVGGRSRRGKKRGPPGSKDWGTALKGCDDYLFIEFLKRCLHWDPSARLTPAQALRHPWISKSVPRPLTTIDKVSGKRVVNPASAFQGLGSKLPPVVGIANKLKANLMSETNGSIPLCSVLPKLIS
Chain of Mitogen-activated protein kinase 9 (P45984 whole entry): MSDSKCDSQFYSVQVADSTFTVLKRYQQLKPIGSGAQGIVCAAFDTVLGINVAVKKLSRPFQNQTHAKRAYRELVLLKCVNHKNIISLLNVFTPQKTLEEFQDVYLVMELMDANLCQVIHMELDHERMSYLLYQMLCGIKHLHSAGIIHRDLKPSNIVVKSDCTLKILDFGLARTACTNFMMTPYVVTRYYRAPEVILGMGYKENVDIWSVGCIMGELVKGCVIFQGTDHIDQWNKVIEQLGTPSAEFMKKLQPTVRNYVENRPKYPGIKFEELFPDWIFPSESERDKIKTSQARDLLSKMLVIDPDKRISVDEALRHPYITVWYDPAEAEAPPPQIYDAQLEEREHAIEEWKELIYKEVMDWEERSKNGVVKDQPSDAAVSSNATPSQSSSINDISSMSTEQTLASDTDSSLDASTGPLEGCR
Chain of Calcium/calmodulin-dependent protein kinase type II subunit alpha (Q9UQM7 whole entry): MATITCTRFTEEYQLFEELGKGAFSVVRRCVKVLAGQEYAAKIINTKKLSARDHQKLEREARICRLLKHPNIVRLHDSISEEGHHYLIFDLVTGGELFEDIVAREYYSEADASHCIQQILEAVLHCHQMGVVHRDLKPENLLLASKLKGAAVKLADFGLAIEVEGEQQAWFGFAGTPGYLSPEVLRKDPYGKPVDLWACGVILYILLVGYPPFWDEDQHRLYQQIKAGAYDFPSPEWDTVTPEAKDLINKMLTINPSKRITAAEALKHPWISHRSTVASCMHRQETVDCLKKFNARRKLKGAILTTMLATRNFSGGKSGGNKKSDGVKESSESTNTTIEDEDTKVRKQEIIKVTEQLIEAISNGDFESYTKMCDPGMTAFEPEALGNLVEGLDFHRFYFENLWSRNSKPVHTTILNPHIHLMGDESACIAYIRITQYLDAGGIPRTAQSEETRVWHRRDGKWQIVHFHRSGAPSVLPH
Chain of Glycogen synthase kinase-3 beta (P49841 whole entry): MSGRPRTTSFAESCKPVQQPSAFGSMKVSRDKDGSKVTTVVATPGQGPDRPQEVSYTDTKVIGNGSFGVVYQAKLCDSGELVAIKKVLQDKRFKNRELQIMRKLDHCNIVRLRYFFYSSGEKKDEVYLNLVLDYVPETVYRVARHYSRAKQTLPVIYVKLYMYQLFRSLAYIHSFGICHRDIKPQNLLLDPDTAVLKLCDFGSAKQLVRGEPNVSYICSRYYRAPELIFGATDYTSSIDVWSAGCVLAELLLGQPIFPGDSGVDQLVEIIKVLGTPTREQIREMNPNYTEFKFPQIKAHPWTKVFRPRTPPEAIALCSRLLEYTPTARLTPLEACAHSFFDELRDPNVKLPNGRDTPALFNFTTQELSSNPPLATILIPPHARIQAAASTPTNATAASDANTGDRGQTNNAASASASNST
Chain of Serine/threonine-protein kinase D2 (Q9BZL6 whole entry): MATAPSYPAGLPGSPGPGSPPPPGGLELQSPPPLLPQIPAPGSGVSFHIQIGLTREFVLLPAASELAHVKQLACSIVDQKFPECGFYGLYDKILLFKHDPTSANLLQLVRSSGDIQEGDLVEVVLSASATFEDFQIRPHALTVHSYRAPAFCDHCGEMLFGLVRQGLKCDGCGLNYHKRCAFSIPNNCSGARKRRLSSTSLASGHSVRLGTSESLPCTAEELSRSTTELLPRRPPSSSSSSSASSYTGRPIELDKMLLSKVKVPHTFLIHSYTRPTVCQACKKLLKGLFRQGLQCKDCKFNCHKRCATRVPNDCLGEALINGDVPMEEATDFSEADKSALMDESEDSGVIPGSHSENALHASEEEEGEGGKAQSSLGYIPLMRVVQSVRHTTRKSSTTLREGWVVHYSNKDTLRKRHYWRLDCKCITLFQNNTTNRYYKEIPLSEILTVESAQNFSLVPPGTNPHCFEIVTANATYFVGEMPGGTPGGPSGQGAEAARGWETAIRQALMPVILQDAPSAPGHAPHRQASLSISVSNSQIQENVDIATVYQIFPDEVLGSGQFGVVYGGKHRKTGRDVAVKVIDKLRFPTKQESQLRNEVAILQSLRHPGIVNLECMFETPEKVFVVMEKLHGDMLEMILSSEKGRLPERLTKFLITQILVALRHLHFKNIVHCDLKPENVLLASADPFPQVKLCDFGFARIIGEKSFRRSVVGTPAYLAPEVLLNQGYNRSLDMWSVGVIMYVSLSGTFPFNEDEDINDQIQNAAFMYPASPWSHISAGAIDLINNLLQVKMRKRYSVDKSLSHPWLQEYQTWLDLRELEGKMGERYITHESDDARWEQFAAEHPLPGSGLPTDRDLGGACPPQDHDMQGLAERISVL
Chain of Serine/threonine-protein kinase TBK1 (Q9UHD2 whole entry): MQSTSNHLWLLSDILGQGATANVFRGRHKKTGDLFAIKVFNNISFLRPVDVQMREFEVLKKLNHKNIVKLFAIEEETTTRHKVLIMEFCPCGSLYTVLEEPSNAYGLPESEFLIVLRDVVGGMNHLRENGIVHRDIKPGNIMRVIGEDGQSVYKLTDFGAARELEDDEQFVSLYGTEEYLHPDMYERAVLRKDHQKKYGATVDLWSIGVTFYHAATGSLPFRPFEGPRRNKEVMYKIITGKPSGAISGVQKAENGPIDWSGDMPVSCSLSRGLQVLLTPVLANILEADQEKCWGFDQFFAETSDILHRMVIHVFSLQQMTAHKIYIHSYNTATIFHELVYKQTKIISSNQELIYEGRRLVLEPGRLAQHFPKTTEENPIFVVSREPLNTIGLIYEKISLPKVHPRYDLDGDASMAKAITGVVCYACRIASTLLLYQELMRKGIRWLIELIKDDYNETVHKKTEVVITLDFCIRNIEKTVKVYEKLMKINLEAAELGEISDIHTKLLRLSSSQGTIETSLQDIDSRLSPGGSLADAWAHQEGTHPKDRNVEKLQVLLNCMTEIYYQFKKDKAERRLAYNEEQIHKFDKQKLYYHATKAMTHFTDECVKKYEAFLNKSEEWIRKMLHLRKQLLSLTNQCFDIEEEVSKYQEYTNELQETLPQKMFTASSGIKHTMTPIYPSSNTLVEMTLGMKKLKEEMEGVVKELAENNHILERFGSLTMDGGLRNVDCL
Chain of Cyclin-dependent kinase 1 (P06493 whole entry): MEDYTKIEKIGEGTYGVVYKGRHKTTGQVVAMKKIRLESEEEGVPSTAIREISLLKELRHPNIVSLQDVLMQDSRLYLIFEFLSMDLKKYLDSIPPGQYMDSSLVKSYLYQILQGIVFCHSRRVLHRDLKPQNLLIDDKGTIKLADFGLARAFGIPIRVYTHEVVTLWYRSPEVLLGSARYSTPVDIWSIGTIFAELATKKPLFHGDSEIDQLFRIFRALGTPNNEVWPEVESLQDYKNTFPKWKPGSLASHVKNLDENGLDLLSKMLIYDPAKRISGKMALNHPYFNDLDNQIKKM

For `C=CCNC1=C(Cl)C(=O)c2ccccc2C1=O`, which AC50 [1] is on record?
The AC50 was 9990 nM (active).

And the AC50 [2]?
The AC50 was 53500 nM (active).

With `CS(=O)(=O)c1ccc2c(c1)SC1=NC(=O)/C(=C/c3ccc(O)c(O)c3)C(=N)N12` as the molecule, how does the IC50 [3] read?
Its IC50 is 10400 nM (active).

And the IC50 [4]?
Its IC50 is 4570 nM (active).

With `CCOC(=O)C(C(=O)OCC)c1cc(Br)c2noc3c2c1C(=O)c1ccccc1-3` as the molecule, how does the EC50 [5] read?
Its EC50 is 10200 nM (active).

And the EC50 [6]?
Its EC50 is > 260000 nM (inconclusive).

Which results are given for `CN(C)c1ccc(-c2nnc(-c3cccs3)o2)cc1`?
IC50 [7]: > 49700 nM (inactive); IC50 [8]: 3580 nM (active)

For `COc1ccc(C(=O)Nc2n[nH]c3ccc(-c4cn(Cc5ccccc5)nn4)cc23)cc1OC`, which Ki [9] is on record?
Its Ki is 398 nM (active).

What about the Ki [10] of the same molecule?
Its Ki is > 1260 nM (inactive).

And the Ki [11]?
Its Ki is 39.8 nM (active).

What about the Ki [12] of the same molecule?
Its Ki is 200 nM (active).

And the Ki [13]?
The Ki was 25.1 nM (active).

What about the Ki [14] of the same molecule?
The Ki was > 100 nM (inactive).

What about the Ki [15] of the same molecule?
The Ki was 251 nM (active).

And the Ki [16]?
The Ki was 631 nM (active).

What about the Ki [17] of the same molecule?
The Ki was 631 nM (active).

And the Ki [18]?
Its Ki is 501 nM (active).

And the Ki [19]?
The Ki was 2000 nM (active).

And the Ki [20]?
Its Ki is > 6310 nM (inactive).

And the Ki [21]?
The Ki was 398 nM (active).
